Laboratory results: PMC7770649 (iScience, 2020)

Biological target: TPI (triosephosphate isomerase), recombinant
Assay: isothermal titration calorimetry
Assay type: binding
Conditions: 100 μM TPI, 1 mM palmitic amide; DMSO control

CCCCCCCCCCCCCCCC(N)=O [palmitic amide]
Kd: 4.89 ± 1.23 µM
